Measured values published in patent US20240408114A1, “METHODS FOR PREVENTING AND TREATING ACUTE KIDNEY INJURY” (The Johns Hopkins University, priority 2021, published 2024).

Key:
splenic T cells [1] = test: Splenic T cell phenotypes in post-IRI mice; format: in vivo, mouse; details: vs vehicle
Method: T cell proliferation assessed with Ki67 expression was reduced in CD4^+ and CD8^+ T cells from JHU083 treated post-ischemic kidneys (Ki67^+, CD4^+ T cells 58.7±2.9 vs 50.6±2.1%, P=0.035; CD8^+ T cells, 61.2±4.2% vs 48.4±4.1%, P=0.043) (FIG. 15). […] We also studied immunophenotypes of splenic T cells from post-IRI mice.
KMNCs were isolated according to our previously described Percoll density gradient protocol. Ascon et al., 2006. Briefly, decapsulated kidneys were immersed and incubated in collagenase D (2 mg/mL; Sigma-Aldrich) solution for 30 min at 37° C. Samples were strained through 70 µm cell strainer (BD Bioscience, Franklin Lakes, NJ), washed, and resuspended in 40% Percoll (GE Healthcare, Chicago, IL) followed by gentle overlaying onto 80% Percoll. After centrifugation at 1,500 g for 30 min in brake off mode at room temperature, KMNCs were collected from interface between 40% and 80% Percoll. […] Cells were counted on hemocytometer using trypan blue exclusion under a microscope.
Cells were washed once with phosphate buffered saline (PBS) and stained with viability dye Zombie NIR Fixable Viability (BioLegend, San Diego, CA) for 15 min at room temperature. […] Samples were analyzed by 4-laser Aurora spectral flow cytometer (Cytek, Fremont, CA). […]

splenic T cells [2] = test: In vitro hypoxia/reoxygenation of CD3/CD28 stimulated splenic T cells; format: cell-based, mouse
Method: In vitro studies were performed to evaluate the effect of glutamine blockade on activated T cells under hypoxia followed by reoxygenation. Splenic T cells (CD45^+, TCR αβ^+) were isolated and cultured using media containing 0.25 μM, 0.5 μM, or 1 μM of JHU083 or vehicle. After 24 h from the culture under CD3/CD28 stimulation, cells were exposed to hypoxia for 24 h followed by reoxygenation.
Kidney T cells were isolated using FACS. Briefly, single-cell suspension of KMNCs was preincubated with anti-CD16/CD32 Fc block (S17011E, BioLegend) stained in Cell Staining Buffer (BioLegend) with fluorochrome-labeled antibodies: APC-Cy7 anti-CD45 (30-F11) and BV421 anti-TCRβ ([…]) from BioLegend. Live Dead Aqua (Thermo Fisher Scientific) was stained for viability assay. […] TCRβ^+ cells were sorted with FACSAria II Cell Sorter (BD Bioscience). Splenic T cells were isolated from single cells suspension of spleens using a T Cell Isolation Kit II (Miltenyi Biotec, North Rhine-Westphalia, Germany) according to the manufacturer's guideline.
48-well flat-bottom plates were coated with 5-μg/mL anti-CD3 in PBS and incubated at 4° C. overnight. […]

CCOC(=O)[C@H](CCC(=O)C=[N+]=[N-])NC(=O)[C@@H](N)CC(C)C [JHU083]
immunophenotypes of splenic CD4+ and CD8+ T cells (splenic T cells [1]): increased naïve phenotypes with low CD44 and high CD62L expression
expression of activation and proliferation markers (CD44, CD69, CD25, Ki67) (splenic T cells [2]; 0.25 μM, 0.5 μM, or 1 μM JHU083, 24 h hypoxia followed by reoxygenation, dose-dependent, vs vehicle): reduced expression of activation and proliferation markers
metabolic profiles of treated T cells (splenic T cells [2]; CD3/CD28 stimulation, hypoxia/reoxygenation, FIG. 18B): exhibited unstimulated T cell phenotypes
